Data on one compound can be found in patent US8440628B2, “Medical compositions containing ghrelin” (Daiichi Sankyo Company, Limited, priority 2002, dated 2013).

The format of series [1] is physicochemical. The method, then:
Human ghrelin, which is one of the ghrelins, was dissolved in the 0.05M glycine hydrochloride buffer solutions (pH 3.5) to obtain an aqueous solution containing human ghrelin with following five concentrations, which are applicable for medical usage.
0.03 nmol/mL (0.1 μg/mL); 0.3 nmol/mL (1.0 μg/mL);
3.0 nmol/mL (10.0 μg/mL); 0.3 μmol/mL (1.0 mg/mL);
Each solutions were stored at 25±2° C. for 24 hours, and after storage, the HPLC analyses of each solutions were conducted to calculate the residual ratios from the concentration of human ghrelin. The changes of pH value were also examined to confirm no significant changes of pH in solutions occurred.
The residual ratio of the solution before storage was referred to as 100%, and the residual ratio of each solution after storage and the changes of pH value of each solution were summarized in the following Table 4.

Series [2] can be described thus: Lyophilized powder for in situ preparation: solubility, content and pH after redissolving (Example 11). The settings on record: solution just after preparation, before lyophilization.
Procedure: Human ghrelin was dissolved in 5% mannitol-0.05M glycine hydrochloride buffer solution (pH 3.5) with about 0.3 nmol/mL (1.0 μg/mL) concentration, and the human ghrelin concentration of this solution just after preparation was measured by HPLC method, and pH value of this solution was also measured. […] Then, this solution was lyophilized at −25° C. for 24 hours in vacuo, and the obtained powder was further dried at 20° C. for 24 hours in vacuo.
[3] abbreviates: h. ghrelin 0.03 nmol/mL in 0.05M glycine hydrochloride buffer (pH 3.5), after storage for 25° C./24 hours.
Where [4] appears, read: h. ghrelin 0.03 nmol/mL in 0.05M glycine hydrochloride buffer (pH 3.5), just after preparation.
[5] abbreviates: h. ghrelin 0.3 nmol/mL in 0.05M glycine hydrochloride buffer (pH 3.5), after storage for 25° C./24 hours.
[6] abbreviates: h. ghrelin 0.3 nmol/mL in 0.05M glycine hydrochloride buffer (pH 3.5), just after preparation.
[7] abbreviates: h. ghrelin 3.0 nmol/mL in 0.05M glycine hydrochloride buffer (pH 3.5), after storage for 25° C./24 hours.
Where [8] appears, read: h. ghrelin 3.0 nmol/mL in 0.05M glycine hydrochloride buffer (pH 3.5), just after preparation.
The mark [9] stands for this setting: h. ghrelin 0.3 μmol/mL in 0.05M glycine hydrochloride buffer (pH 3.5), after storage for 25° C./24 hours.
Where [10] appears, read: h. ghrelin 0.3 μmol/mL in 0.05M glycine hydrochloride buffer (pH 3.5), just after preparation.
Setting [11] is: h. ghrelin 3 μmol/mL in 0.05M glycine hydrochloride buffer (pH 3.5), after storage for 25° C./24 hours.
[12] abbreviates: h. ghrelin 3 μmol/mL in 0.05M glycine hydrochloride buffer (pH 3.5), just after preparation.

Structures are written as SMILES. Read-outs that look alike come from different tables or passages of the source.

In the case of `CCCCCCCC(=O)OC[C@H](NC(=O)[C@H](CO)NC(=O)CN)C(=O)N[C@@H](Cc1ccccc1)C(=O)N[C@@H](CC(C)C)C(=O)N[C@@H](CO)C(=O)N1CCC[C@H]1C(=O)N[C@@H](CCC(=O)O)C(=O)N[C@@H](Cc1c[nH]cn1)C(=O)N[C@@H](CCC(N)=O)C(=O)N[C@@H](CCCNC(=N)N)C(=O)N[C@H](C(=O)N[C@@H](CCC(N)=O)C(=O)N[C@@H](CCC(N)=O)C(=O)N[C@@H](CCCNC(=N)N)C(=O)N[C@@H](CCCCN)C(=O)N[C@@H](CCC(=O)O)C(=O)N[C@@H](CO)C(=O)N[C@@H](CCCCN)C(=O)N[C@@H](CCCCN)C(=O)N1CCC[C@H]1C(=O)N1CCC[C@H]1C(=O)N[C@@H](C)C(=O)N[C@@H](CCCCN)C(=O)N[C@@H](CC(C)C)C(=O)N[C@@H](CCC(N)=O)C(=O)N1CCC[C@H]1C(=O)N[C@@H](CCCNC(=N)N)C(=O)O)C(C)C` [Human ghrelin], the Residual ratio is 62% in series [1] (setting [3]); 100% in series [1] (setting [4]); 98% in series [1] (setting [5]); 100% in series [1] (setting [6]); 98% in series [1] (setting [7]); 100% in series [1] (setting [8]). Besides, the Residual ratio came to 101% in series [1] (setting [9]), 100% in series [1] (setting [10]), 101% in series [1] (setting [11]) and 100% in series [1] (setting [12]). The pH was 3.5 in series [1] (setting [3]); 3.4 in series [1] (setting [4]); 3.5 in series [1] (setting [5]); 3.5 in series [1] (setting [6]); 3.6 in series [1] (setting [7]); 3.5 in series [1] (setting [8]). For the same compound, the pH in series [1] (setting [9]) is given as 3.3; in series [1] (setting [10]), 3.4; in series [1] (setting [11]), 3.3; in series [1] (setting [12]) it was 3.4. For the same compound, the “pH value of the solution” value in series [2] is 3.5.
